This note sets out measurements from patent publication US20250137059A1, “ACTIVATED RAS AS THERAPEUTIC AND DIAGNOSTIC TARGET FOR NEUROFIBROMATOSIS AND USE THEREOF” (THE ASAN FOUNDATION, priority 2021, published 2025).

What all share (type): cell-based, human
In assay [1] the test system is GTP-bound and activated RAS (Ras-GTP) protein. The assay is described as follows: G-LISA Ras activation assay in skin fibroblasts after EGF stimulation upon Ataluren treatment. As to conditions: skin fibroblasts of neurofibromatosis patients (NF1 stop codon mutation) with increased Ras activity compared to normal individuals; Ataluren 20 μg/ml and 30 μg/ml (FIG. 3: 30 μg/ml); EGF 100 ng/ml. As to the method:
The skin fibroblasts from donated normal individuals and neurofibromatosis patients were cultured in a DMEM supplemented with 10% FBS and 1% penicillin-streptomycin. When the cells were cultured until the density reached 70% to 80% of a container, the medium was replaced with an FBS-free medium, and the cells were cultured and subjected to a starvation process for 24 hours. Next, the cells were transferred to an FBS-containing medium, treated with epidermal growth factor (EGF), which is a Ras activator, by dilution to a concentration of 100 ng/ml, and then allowed for a reaction at 37° C. for 5 minutes to prepare each sample. To analyze the activity of the RAS proteins, a G-LISA Ras activation assay biochem Kit of Cytoskeleton Company (Absorbance Based) (Cytoskeleton, Cat No. BK131), which enables the measurement of a small number of cells and a large number of cells at the same time by compensating for the disadvantages of the pull-down assay, was used.
Briefly, in a method of analyzing the activity of the RAS proteins, cells were lysed by using a cell lysis solution included in the kit after treatment with EGF, only the supernatant was obtained, and the proteins contained in the supernatant were quantified. […] Next, an HRP detection reagent was added and a reaction was allowed for 15 minutes at room temperature to measure the absorbance at 490 nm. […]

Another assay deals with p-ERK protein. The experiment in a line: Expression ratios of ERK and p-ERK on membrane with ERK and p-ERK antibodies (FIG. 5). As to conditions: Ataluren 20 μg/ml or 30 μg/ml (FIG. 5). As for the experimental part: (§1) The skin fibroblasts from donated normal individuals and neurofibromatosis patients were treated with Ataluren at concentrations of 20 μg/ml and 30 μg/ml and cultured, in a DMEM supplemented with 10% FBS and 1% penicillin-streptomycin. When the cells were cultured until the density reached 70% to 80% of a container, the medium was replaced with an FBS-free medium, and the cells were cultured and underwent a starvation process for 24 hours. Next, the cells were transferred to an FBS-containing medium, treated with EGF, which is a Ras activator, by dilution to a concentration of 100 ng/ml, and then allowed for a reaction at 37° C. for 5 minutes to prepare each sample. Measurement of the activity of Ras proteins in each sample was performed in the same manner as described in Example 2.
(§2) The same protein of which the Ras activity was measured in Example 3 was subjected to electrophoresis by using NuPAGETM 4-12% Bris-Tris Gel (Invitrogen).
To more accurately compare the ERK activity, the electrophoresed proteins were transferred to a hybond-ECL membrane, and the membrane was blocked with 3% skim milk. Next, ERK and p-ERK antibodies were reacted on the membrane at 4° C. for 24 hours, and then washed by using TBST three times. […] The expression ratios of ERK and p-ERK in the washed membrane were measured.

For assay [2], the system named is phosphorylated ERK (p-ERK). The assay is described as follows: Electrophoresis comparison of p-ERK expression in fibroblasts upon Ataluren treatment (FIG. 4). The following applies: Ataluren 20 μg/ml or 30 μg/ml, electrophoresis (FIG. 4); for expression of p-ERK: fibroblasts of neurofibromatosis patients in which the activity of Ras proteins has been decreased. As for the experimental part:
as §1, §2

Where [3] appears, read: fibroblasts of normal individuals.

Take `O=C(O)c1cccc(-c2noc(-c3ccccc3F)n2)c1` [Ataluren, 3-[5-(2-fluoro-phenyl)-[1,2,4]oxadiazol-3-yl]-benzoic acid]: in assay [1], the “signal of Ras-GTP (activity of Ras proteins)” value is given as “significantly decreased”. For the same molecule, the “expression of p-ERK (expression ratios of ERK and p-ERK)” value in the assay on p-ERK protein (fibroblasts of neurofibromatosis patients in which the activity of Ras proteins has been decreased) is on record as “decreased”. Moreover, the “expression level of p-ERK protein (expression ratios of ERK and p-ERK)” value in the assay on p-ERK protein (setting [3]) is given as “slightly increased”. The “expression of p-ERK” value is listed as “decreased” in assay [2] and “significantly decreased” in assay [2] (listed as ataluren). In assay [2] (setting [3]), the “expression of phosphorylated ERK (p-ERK)” value is reported as “no change”.
